Where “and” joins values, the source holds several entries; their conditions need not be identical. Equal entries are not always repeated.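 Where inhibition never reached the appropriate level, the endpoint shown equals the highest concentration tested. Otherwise, values were interpolated linearly from a five-concentration, 48-hour dose response in 96-well plates. GI50: concentration for 50% inhibition of growth. TGI is the concentration that stops growth completely.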
What was measured:
Experiment in all cases: growth of human tumour cells (NCI), 48 h
[1] = tested on: OVCAR-3 ovarian
[2] = tested on: BT-549 breast
[3] = tested on: SK-MEL-28 melanoma
[4] = tested on: SW-620 colon
[5] = tested on: ACHN renal
[6] = tested on: UACC-62 melanoma
[7] = tested on: NCI-H226 lung
[8] = tested on: HOP-62 NSCLC
[9] = tested on: M19-MEL melanoma
[10] = tested on: SNB-78 CNS

| Compound | GI50 [1] [µM] | TGI [1] | GI50 [2] [µM] | TGI [2] | GI50 [3] [µM] | TGI [3] | GI50 [4] [µM] | TGI [4] | GI50 [5] [µM] | TGI [5] | GI50 [6] [µM] | TGI [6] | GI50 [7] [µM] | TGI [7] | GI50 [8] [µM] | TGI [8] | TGI [9] [µM] | TGI [10] [µM] | GI50 [9] [µM] |
| --- | --- | --- | --- | --- | --- | --- | --- | --- | --- | --- | --- | --- | --- | --- | --- | --- | --- | --- | --- |
| O=C1/C(=C/c2ccc(O)c([N+](=O)[O-])c2)CCC/C1=C\c1ccc(O)c([N+](=O)[O-])c1 | 2.54 | 17.1 µM and > 100 µM | 2.83 | 36.6 µM and 9.46 µM | 19.9 | 20.3 µM and 45 µM | 30.1 | 50 µM and 99.2 µM | 20.4 | 14.8 µM and 38.5 µM | 14.1 | 15.5 µM and 37.2 µM | 33.7 | 24.7 µM and > 100 µM | 25 | 28 µM and > 100 µM |  |  |  |
| CC(=O)Nc1nc(SCc2ccccc2)c2ncn(C(C)=O)c2n1 | 84.3 | > 100 µM | 85.3 | > 100 µM | > 100 | > 100 µM | > 100 | > 100 µM | 61.6 | > 100 µM | 61.8 | > 100 µM | 45.4 | > 100 µM | 62.7 | > 100 µM |  |  |  |
| C=CC[C@H]1C[C@@]2(C)OC[C@H](C(C)C)N2C1=O |  | > 100 µM |  |  |  | > 100 µM |  | > 100 µM |  | > 100 µM |  | > 100 µM |  |  |  | > 100 µM | > 100 | > 100 |  |
| Nc1ccc(C(=O)c2ccc(N)c(Br)c2)cc1Br | 0.234 | 0.517 µM | 1.84 | 18.8 µM | 1.09 | > 100 µM | 0.379 | > 100 µM | 1.47 | > 69.9 µM | 0.645 | > 62.1 µM | 4.27 | > 61.5 µM | 0.538 | 22.7 µM |  |  |  |
| COc1ccc(C2=NN(C(=O)COc3ccc(Cl)cc3)C(O)(c3cc(F)c(Cl)cc3Cl)C2)cc1OC (stereo not drawn) | 0.214 | 1.46 µM | 2.75 | 10.7 µM | 1.85 | 3.5 µM | 0.869 | 2.58 µM | 1.63 | 3.28 µM | 5.6 | 18.7 µM | 2.84 | 8.24 µM | 13.9 | 30.8 µM |  |  |  |
| C[C@@H]1O[C@@H](O[C@@H]2[C@@H](O)[C@H](OCCc3ccc(O)c(O)c3)O[C@H](COC(=O)/C=C/c3ccc(O)c(O)c3)[C@H]2O)[C@H](O)[C@H](O)[C@H]1O | 13 | > 100 µM | 12.8 | 30 µM | > 100 | > 100 µM | 18.7 | 37.9 µM | > 100 | > 100 µM | > 100 | > 100 µM | > 100 | > 100 µM | > 100 | > 100 µM |  |  |  |
| C=C1C(=O)O[C@@H]2C1C[C@@H](O)/C(C)=C/C/C=C(\C)CCC[C@H](C)[C@H]2OC(C)=O (stereo partly drawn) | 21.4 | 42.7 µM | 20 | 39.1 µM | 34.5 | > 100 µM | 26 | 58.9 µM | 21.3 | 42.6 µM | 22 | 43.5 µM | 23.2 | 44.3 µM | 45.4 | > 100 µM |  |  |  |
| C=C1C[C@@H]2C/C=C/C(=O)C/C(C)=C\C=C\C(=O)O[C@H](C=O)C/C(C)=C/[C@H](C1)O2 | 0.557 | 24.4 µM | 0.315 | 0.94 µM | 2.91 | 20.5 µM | 0.449 | 15.7 µM | 6.64 | 21.8 µM | 0.818 | 14 µM | 8.49 | 49 µM | 1.75 | 17.3 µM |  |  |  |
| N#CC1=C(N)NC(=S)NC12Nc1ccccc1O2 (stereo not drawn) | 36.4 | > 100 µM | 48.2 | > 100 µM | 45.7 | > 100 µM | 47.6 | > 100 µM | 29.2 | 99.2 µM | 20.8 | 70 µM | 30.5 | > 100 µM | 17.5 | 57.7 µM |  |  |  |
| CC(=O)[CH-]C(=O)c1ccccc1.CC(=O)[CH-]C(=O)c1ccccc1.CC(=O)[CH-]C(=O)c1ccccc1.[Tl+3] | 24.1 | > 75.5 µM |  |  | 74.3 | > 100 µM | 57.5 | > 100 µM | 51.1 | > 100 µM | 32 | > 100 µM | 35.7 | > 100 µM | 33.5 | 99.9 µM | > 100 |  | 38 |
| Cc1cc(C)c(O)c(CNCCCCCCNCc2cc(C)cc(C)c2O)c1 | 1.64 | 3.42 µM | 2.24 | 5.52 µM | 1.66 | 3.28 µM | 1.81 | 3.56 µM | 1.91 | 3.69 µM | 1.82 | 3.41 µM | 1.83 | 3.72 µM | 1.77 | 3.6 µM |  |  |  |
| COc1c(C)c2c(c(O)c1C/C=C(\C)CCC(=O)OCCN1CCOCC1)C(=O)OC2 | 0.348 | > 100 µM | 0.426 | > 100 µM | 0.236 | > 100 µM | 0.142 | > 100 µM | 0.458 | > 100 µM | 0.354 | > 100 µM | 0.581 | > 100 µM | 0.457 | > 100 µM |  |  |  |
| Cc1nc2c(=O)[nH]c(=O)n(C)c2[nH]c1=O |  | > 100 µM |  |  |  | > 100 µM |  | > 100 µM |  | > 100 µM |  | > 100 µM |  | > 100 µM |  | > 100 µM | > 100 |  |  |
| O=C1CCCCCCCC/C=C/CCC(c2ccco2)O1 (stereo not drawn) | 39.4 | > 100 µM | 37.1 | > 100 µM | 73.3 | > 100 µM | 58.3 | > 100 µM | > 100 | > 100 µM | 26.2 | > 100 µM | 34.8 | > 100 µM | 41.2 | > 100 µM |  |  |  |

Reference: PubChem BioAssay (NCI)
